# From patent US8633167B2, “Method for the protection of trees” (Syngenta Crop Protection LLC, priority 2006, dated 2014)
# Columns and labels:
# [1] = system: pine wood nematode, Bursaphelenchus xylophilis; conditions: cited from earlier work
# [2] = system: Ips engravers beetles; test: Single-tree protection study (Example 2): Ips attack, tree mortality and gallery construction on standing loblolly pine; type: in vivo; conditions: for Mean # of Egg Galleries Total Number / Mean # of Egg Galleries With Brood No. / Mean # of Egg Galleries Without Brood No. / Mean Length of Egg Galleries Total Length / Mean Length of Egg Galleries With Brood cm / Mean Length of Egg Galleries Without Brood cm: bolts cut after tree mortality or at the end of the trial; for Mean # of Nuptial Chambers With Egg Galleries % of Total / Mean # of Nuptial Chambers Without Egg Galleries % of Total / Mean # of Nuptial Chambers Without Egg Galleries No. / Mean # of Nuptial Chambers with Egg Galleries No. / Mean Total # of Nuptial Chambers: bolts cut after tree mortality or the end of the trial
# Description: Two 20-year-old, recently thinned loblolly pine plantations were selected on land owned by Temple-Inland Forest Products Corporation about 5 km south of Wells (Angelina County), Tex. Trees in one plantation were injected for use in a bolt study (Example 1). Trees in a 0.2 ha section of the second plantation were injected as part of a single-tree protection study (Example 2). A staging area also was set up in the second plantation where bolts from the first plantation were exposed to bark beetles and wood borers.
# Loblolly pine, 15-20 cm DBH, were selected in the second plantation in March 2004. Each treatment (the same as those used in Example 1) was injected into four cardinal points about 0.3 m above the ground on each of 6 trees in April (16th-23rd) using the Arborjet Tree IV™ system. After 5 weeks post-injection (May 28), frills were cut with a hatchet into the sapwood between the injection points near the base of the tree. A cellulose sponge was inserted into each cut and loaded with 10 ml of a 4:1 mix of sodium N-methyldithiocarbamate (MS) (Woodfume®; Osmose, Inc., Buffalo, N.Y.) plus dimethyl sulfoxide (DMSO) (Aldrich Chemical) (Roton 1987, Strom et al. 2004). This method reduces resin to near zero in 1-2 weeks. The intent was to stress the tree and make it susceptible to attack by bark beetles without killing it.
# Pheromone packets containing racemic ipsdienol + lanerione, ipsenol or cis-verbenol were attached (June 7) atop 3 m stakes evenly spaced in between and around the study trees to encourage attack by the three Ips engraver species. […] Thus, ipsdienol and cis-verbenol pheromone baits were deployed on all stakes on June 17th. The baits were changed every 4 weeks.
# A clear panel of acetate (10 cm wide by 25 cm long) coated with Stickem Special® was attached 2 m high on standing trees after deployment of pheromone baits to monitor arrival of bark beetles. The traps were left in place for two weeks.
# Three weeks after pheromone deployment (June 28), each tree was evaluated by marking a 30 cm section of bole at a height of 3 m. All visible Ips attacks and cerambycid egg niches were counted within the marked area. The number of trees with fading crowns also was recorded. Thereafter, the trees were evaluated weekly for crown fading. When mortality did occur, the trees were felled and two bolts taken and evaluated for attack success and gallery length as described in Example 1. All remaining trees were felled 66 days (Aug. 9) after initial pheromone deployment when no additional trees had died for 3 weeks. Treatment efficacy was determined by comparing tree survival, beetle attacks and egg gallery length on treated and untreated bolts. As before, data were transformed and analyzed by GLM and the Fisher's Protected LSD test using the Statview statistical program.
substance,measurement,setting,value
4″-deoxy-4″-N-methylamino avermectin B1a/B1b [Emamectin],duration of protection,"[1]; pine, against pine wood nematode and coneworm",more than three years
same,efficacy against pine wood nematode,[1]; systemic activity in pine,highly effective
same,Percentage of Trees With Fading Crowns,[2]; after 24 days,0.0 a %
same,Percentage of Trees With Fading Crowns,[2]; after 32 days,0.0 a %
same,Percentage of Trees With Fading Crowns,[2]; after 39 days,0.0 a %
same,Percentage of Trees With Fading Crowns,[2]; after 46 days,0.0 a %
same,Percentage of Trees With Fading Crowns,[2]; after 52 days,0.0 a %
same,Percentage of Trees With Fading Crowns,[2]; after 66 days,0.0 a %
same,Mean # of Egg Galleries Total Number,[2]; bolt height 3 m,0.0 a
same,Mean # of Egg Galleries With Brood No.,[2]; bolt height 3 m,0.0 a
same,Mean # of Egg Galleries Without Brood No.,[2]; bolt height 3 m,0.0 a
same,Mean Length of Egg Galleries Total Length,[2]; bolt height 3 m,0.0 a cm
same,Mean Length of Egg Galleries With Brood cm,[2]; bolt height 3 m,0.0 a cm
same,Mean Length of Egg Galleries Without Brood cm,[2]; bolt height 3 m,0.0 a cm
same,Mean # of Egg Galleries Total Number,[2]; bolt height 8 m,0.0 a
same,Mean # of Egg Galleries With Brood No.,[2]; bolt height 8 m,0.0 a
same,Mean # of Egg Galleries Without Brood No.,[2]; bolt height 8 m,0.0 a
same,Mean Length of Egg Galleries Total Length,[2]; bolt height 8 m,0.0 a cm
same,Mean Length of Egg Galleries With Brood cm,[2]; bolt height 8 m,0.0 a cm
same,Mean Length of Egg Galleries Without Brood cm,[2]; bolt height 8 m,0.0 a cm
same,Mean # of Nuptial Chambers With Egg Galleries % of Total,[2]; bolt height 3 m,0.0%
same,Mean # of Nuptial Chambers Without Egg Galleries % of Total,[2]; bolt height 3 m,100.0%
same,Mean # of Nuptial Chambers Without Egg Galleries No.,[2]; bolt height 3 m,3.0 ab
same,Mean # of Nuptial Chambers with Egg Galleries No.,[2]; bolt height 3 m,0.0 a
same,Mean Total # of Nuptial Chambers,[2]; bolt height 3 m,3.0 a
same,Mean # of Nuptial Chambers With Egg Galleries % of Total,[2]; bolt height 8 m,0.0%
same,Mean # of Nuptial Chambers Without Egg Galleries % of Total,[2]; bolt height 8 m,100.0%
same,Mean # of Nuptial Chambers Without Egg Galleries No.,[2]; bolt height 8 m,1.3 ab
same,Mean # of Nuptial Chambers with Egg Galleries No.,[2]; bolt height 8 m,0.0 a
same,Mean Total # of Nuptial Chambers,[2]; bolt height 8 m,1.3 a
same,attacks on cut bolts compared to the check,"[2]; cut bolts, both heights",significantly fewer
same,success of attacks that did occur,"[2]; cut bolts, both heights",completely unsuccessful
same,"Mean # of Attacks/0.3 Bole Section at 3 m after 24 days, Ips","[2]; standing loblolly pine, after 24 days",0.5 a
same,Mean # of Ips caught/Trap,"[2]; standing loblolly pine, trap 2 m high",1.2 a
same,Ips attacks compared to checks,"[2]; standing trees, at 3 m height",significantly fewer
same,trees with fading crowns (yellowing needles),"[2]; standing trees, first evaluation",None
same,tree survival,"[2]; standing trees, study discontinued after 66 days",all emamectin benzoate-treated trees survived
